Among the data in US6924307B2, “Aminobutyric acid derivatives and pharmaceutical composition containing the same as active ingredient” (Ono Pharmaceutical Co., Ltd., priority 1999, dated 2005) are IC50 values, retold here.

Molecules are shown by their SMILES.

What all share (format): biochemical
The target of assay [1] is T1, gelatinase A (Homo sapiens, UniProt P08253).
T1 construct: endogenous in cells; host or cells: human normal skin dermal fibroblasts (HNDF)
T1 sequence (P08253 110-660): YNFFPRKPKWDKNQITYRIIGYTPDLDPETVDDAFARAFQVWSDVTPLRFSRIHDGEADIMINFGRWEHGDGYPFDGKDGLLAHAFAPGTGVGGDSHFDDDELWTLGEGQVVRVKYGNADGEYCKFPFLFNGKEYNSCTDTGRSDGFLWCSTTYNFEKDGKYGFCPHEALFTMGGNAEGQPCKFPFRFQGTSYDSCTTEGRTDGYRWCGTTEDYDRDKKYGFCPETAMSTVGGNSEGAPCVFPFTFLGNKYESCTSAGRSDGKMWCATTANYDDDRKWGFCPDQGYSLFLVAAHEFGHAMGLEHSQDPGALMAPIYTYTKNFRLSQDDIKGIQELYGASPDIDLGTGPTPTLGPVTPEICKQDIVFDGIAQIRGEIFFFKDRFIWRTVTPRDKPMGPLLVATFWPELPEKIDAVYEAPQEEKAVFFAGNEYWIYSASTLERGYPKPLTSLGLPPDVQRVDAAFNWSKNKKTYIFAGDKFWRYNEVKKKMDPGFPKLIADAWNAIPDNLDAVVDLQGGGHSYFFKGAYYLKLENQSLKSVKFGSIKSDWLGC
In words: Inhibitory activity against gelatinase A (fluorogenic synthetic substrate). The settings on record: gelatinase A from progelatinase A purified from human normal skin dermal fibroblasts (HNDF), APMA-activated; 37° C. The method, then:
(1) Inhibitory Activity Against Gelatinase A
The progelatinase A (5 μl; in assay buffer (40 μl)) was purified from human normal skin dermal fibroblasts (HNDF). It was activated by adding thereto 10 mM of p-aminophenylmercuric acetate (APMA) (5 μl) and preincubating for 1 hour at 37° C.
A mixture of the synthetic substrate (MOCAc-Pro-Leu-Gly-A2pr(Dnp)-Ala-Arg-NH2) (130 μl; a final concentration 13.5 μM) and a solution (20 μl) with or without various concentrations of the test compound was preincubated for 5 minutes at 37° C.
The solution of activated gelatinase A (50 μl/well) was mixed with the mixture and the mixture was incubated for 15 minutes at 37° C. The enzyme reaction was started. The enzyme activity was represented by increasing value of fluorescent intensity [Ex=325 nm (Ex)/393 nm (Em)] per 1 minute. Inhibitory activity was represented by inhibitory percentage (%) per enzyme activity without the test compound.

For assay [2], the target named is T2, human stromelysin (Homo sapiens, UniProt P08254).
T2 construct: purchased Yagai
T2 sequence (P08254 100-477): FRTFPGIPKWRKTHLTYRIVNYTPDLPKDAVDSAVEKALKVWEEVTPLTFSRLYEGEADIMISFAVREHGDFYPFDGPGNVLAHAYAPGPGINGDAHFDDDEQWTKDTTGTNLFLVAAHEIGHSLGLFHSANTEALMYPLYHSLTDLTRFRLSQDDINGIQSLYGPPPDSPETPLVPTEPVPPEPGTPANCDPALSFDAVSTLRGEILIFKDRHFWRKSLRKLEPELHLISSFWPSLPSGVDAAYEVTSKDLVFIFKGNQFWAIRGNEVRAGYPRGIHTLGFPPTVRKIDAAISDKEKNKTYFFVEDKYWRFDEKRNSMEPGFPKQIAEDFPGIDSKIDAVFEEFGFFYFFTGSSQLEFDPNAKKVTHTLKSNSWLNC
The assay is described as follows: Inhibitory activity against stromelysin (synthetic substrate NFF-3, fluorescence). Conditions: APMA-activated, pH 7.5, 37° C. The method, then:
(3) Inhibitory Activity Against Stromelysin Method:
The mixture of human stromelysin (Yagai; 9 volume) and 10 mM p-aminophenylmercury acetate (1 volume) was activated for 20 hours at 37° C. A solution of the test compound in dimethylsulfoxide (10 μl) and 0.5 mM solution (10 μl) of 10 mM solution of the synthetic substrate NFF-3 (Mca-Arg-Pro-Lys-Pro-Val-Glu-Nva-Trp-Arg-Lys(DNP)-NH2., Nva: norvaline, Peptide Laboratory) in dimethylsulfoxide diluted by water were added to assay buffer (50 mM tris-HCl, 10 mM CaCl2, 0.05% Brij35, 0.02% NaN3 (pH 7.5)) (150 μl). Furthermore, assay buffer (30 μl) was added to the mixture. The mixture was incubated for 10 minutes at 37° C. The reaction was started by addition of a solution of the above activated stromelysin solution (50 μl). The enzyme activity was represented by increasing value of fluorescent intensity [Ex=325 nm (Ex)/393 nm (Em)] per 1 minute. Inhibitory activity was represented by inhibitory percentage (%) per enzyme activity without the test compound.

The target of assay [3] is T3, collagenase (Homo sapiens, UniProt P03956).
T3 construct: endogenous in cells; host or cells: human normal skin dermal fibroblasts (HNDF)
T3 sequence (P03956 100-469): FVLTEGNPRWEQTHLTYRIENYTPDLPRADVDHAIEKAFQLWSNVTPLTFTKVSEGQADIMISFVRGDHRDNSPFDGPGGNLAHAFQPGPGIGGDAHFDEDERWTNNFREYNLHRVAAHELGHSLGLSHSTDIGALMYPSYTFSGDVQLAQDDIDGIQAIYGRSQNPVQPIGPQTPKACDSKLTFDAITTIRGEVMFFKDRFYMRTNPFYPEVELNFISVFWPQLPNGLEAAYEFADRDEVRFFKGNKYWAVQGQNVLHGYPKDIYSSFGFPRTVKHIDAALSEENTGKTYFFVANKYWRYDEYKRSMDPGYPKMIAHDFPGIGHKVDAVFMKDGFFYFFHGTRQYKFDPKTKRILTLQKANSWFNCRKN
The assay is described as follows: Inhibitory activity against collagenase (thiopeptolide synthetic substrate, absorption at 324 nm). Conditions: collagenase from procollagenase purified from human normal skin dermal fibroblasts (HNDF), trypsin-activated; 26° C. The method, then:
(2) Inhibitory Activity Against Collagenase Method:
The procollagenase (5 μl; in assay buffer (105 μl)) was purified from human normal skin dermal fibroblasts (HNDF). It was activated by adding thereto 1 mg/ml Trypsin (45 μl) and preincubating for 1 minute at 37° C. Trypsin was inactivated by addition of 5 mg/ml soybean trypsin inhibitor (SBTI; 50 μl).
A mixture of the synthetic substrate (Ac-Pro-Leu-Gly-[2-mercapto-4-methyl-pentanoyl]-Leu-Gly-OEt) (105 μl; a final concentration 1.33 mM) and a solution (20 μl) with or without various concentrations of the test compound was preincubated for 5 minutes at 26° C.
The solution of activated enzyme (75 μl /tube, 50 μl) was mixed with the mixture and the mixture was incubated for 10 minutes at 26° C.
Absorption at 324 nm was measured 40 points in the course of 10 minutes. Vmax value was determined as measured value in 30 points therein.

Consider `CCOCOC[C@H](C[C@H](COC)C(=O)NO)NC(=O)c1ccc(Oc2ccccc2)cc1` [8(6), N-hydroxy-5-ethoxymethoxy-2(R)-methoxymethyl-4(S)-[N-(4-phenoxyphenylcarbonyl)amino]pentanamide], for which the IC50 in assay [1] was 1.7 nM; in assay [2] it was 29 nM.
On to `CCOCOC[C@H](C[C@H](COC)C(=O)NO)NC(=O)c1ccc(-c2ccco2)cc1` [8(7), N-hydroxy-5-ethoxymethoxy-2(R)-methoxymethyl-4(S)-[N-(4-(2-furyl)phenylcarbonyl)amino]pentanamide], for which the IC50 in assay [2] is 40 nM.
`CN(C(=O)c1ccc(Br)cc1)[C@H](CO)C[C@H](CCCc1ccccc1)C(=O)NO` [16(2), N-hydroxy-2(S)-(3-phenylpropyl)-5-hydroxy-4(S)-[N-methyl-N-(4-bromophenylcarbonyl)amino]pentanamide] registered an IC50 in assay [1] of 4.2 nM.
`C#CCOC[C@@H](C[C@@H](COCOCC)NC(=O)c1ccc(Cl)cc1)C(=O)NO` [20(3), N-hydroxy-5-ethoxymethoxy-2(R)-(2-propynyloxymethyl)-4(S)-[N-(4-chlorophenylcarbonyl)amino]pentanamide] yielded an IC50 in assay [3] of 6.8 nM.
On the same count and under the same terms, in the case of `C#CC[C@@H](C[C@@H](CO)N(C)C(=O)c1ccc(Br)cc1)C(=O)NO` [21(2), N-hydroxy-2(S)-(2-propynyl)-5-hydroxy-4(S)-[N-methyl-N-(4-bromophenylcarbonyl)amino]pentanamide] it was 7.6 nM.
Still for that read-out and setting: in the case of `CCOCOC[C@H](C[C@H](COC)C(=O)NO)NC(=O)c1ccc(C#N)cc1` [compound 8] it was 14 nM.

Usually IC50 stands for the concentration needed to halve the response being measured. A low value points to greater potency in that assay.
